Data on eleven compounds can be found in patent US20210358575A1, “A METHOD FOR DETERMINING THE EFFICACY OF TREATMENT WITH A COMBINATION OF DRUGS IN A SUBJECT DIAGNOSED WITH A DISEASE AND A METHOD FOR CLASSIFYING THE UTILITY OF DRUG COMBINATIONS IN TREATMENT OF SAID SUBJECT” (priority 2018, published 2021).

The subject of test [1] is bone marrow samples of multiple myeloma (MM) patients. Nature of the test: Ex vivo test of single drugs, EC50 compared with population distribution, multiple myeloma samples. The test is classed as cell-based, human. The method, then: (§1) Bone marrow samples were obtained from three adult patients diagnosed with MM (VIVIA-PMMM010431, VIVIA-PMMM060111 and VIVIA-PMMM130061) and three adult patients diagnosed with ALL (VIVIA-PMALL07002, VIVIA-PMALL04001 and VIVIA-PMALL09001). Following the same experimental design as described for examples 1 and 3, said bone marrow samples were incubated for 48 h in well plates containing the single drugs shown in FIGS. 21 to 26. After the measurement of pathological populations by flow cytometry, pharmacological response parameters were estimated using population pharmacodynamic models. The most representative parameter of drug potency, the EC50, was used for a comparative analysis of the results provided by said bone marrow samples with respect to the statistical distribution of the same parameter observed in a population of samples and stored in the database. Such populations varied in size depending on the drug, being always over one hundred individuals in the case of MM and between 15 and 21 individuals in the case of ALL.

Test [2] has as its system bone marrow samples of acute lymphoid leukemia (ALL) patients. Kind of test: Ex vivo test of single drugs, EC50 compared with population distribution, acute lymphoid leukemia samples. The test is classed as cell-based, human. As to the method:
as §1

Test [3] concerns live pathological cells (LPC) in bone marrow samples of AML patients. Nature of the test: PharmaFlow PM test: ex vivo drug sensitivity of whole bone marrow samples, population pharmacodynamic models. To be noted: typical population value. The format is cell-based, human. The method, then:
Ex vivo drug sensitivity analysis was made using the PharmaFlow platform (previously termed ExviTech®) maintaining the bone marrow (BM) microenvironment. A minimum BM sample volume between one and two mL was collected by aspiration at AML diagnosis, before starting induction chemotherapy, and was processed by an automated method 24 hours after extraction. Samples were incubated with CYT, IDA and/or CYT+IDA for 48 hours. A more detailed description of the procedure has been published elsewhere (Bennett, et al 2014).
Evaluation of drug response was done by counting the number of live pathological cells (LPC) remaining after incubation at increasing drug concentrations (Upton and Mould 2014). Dying cells (apoptosis) were excluded using Annexin V-FITC. Pharmacological responses were analyzed using PD population-based models (Upton and Mould 2014) which essentially perform the fitting of the dependent variable (natural log of LPC) in a non-linear mixed-effects model to derive typical population values (fixed effects) and the magnitude of inter-patient and residual variability (random effects).
Model development was performed with the first-order conditional estimation method using interaction option with the software NONMEM (v7.2) (Beal, et al 1989-2001), according to the following equation: […]
Where LPC0 (LCTi0) parameter refers to the number of LPC (LCTi) after incubation in the absence of drug, Emax represents the maximum fractional decrease in LPC that the drug can elicit, EC50, is the drug concentration exerting half of Emax, and γ is the parameter governing the steepness of the LPC vs drug concentration (C) curve. For interaction analysis a Surface Interaction model (Greco, et al 1995) was used to estimate the degree of synergy, referred as a parameter, between both drugs. Interpatient variability (IPV) associated to all parameters was described by means of an exponential model of the components of variance. An additive error structure was used for the residual variability. Population PD models were built with bone marrow (BM) samples from 473 patients that were incubated with CYT, 456 with IDA and 443 with CYT+IDA. Bayesian estimation methods were then used to retrieve individual patient parameters based on their available exposure-response measurements in conjunction with the PD population parameters.
Individual response profiles normalized with respect to LPC0 (LCTi0), were integrated between the concentration points corresponding to the 20th and 80th percentiles of the distribution of estimated individual EC50 values, to obtain the values of the areas under the curves (AUCs) that were used as a descriptor of the ex vivo drug effect (i.e. the higher the AUC, the lower the cytotoxic effect (efficacy or potency) of the drug.

The subject of test [4] is first-line AML patients treated with CYT+IDA. Kind of test: Validation of PM Test score vs clinical response in 112 first-line AML samples. The test is classed as in vivo, human. To be noted: 112 AML patients treated with CYT+IDA. From the text:
The Precision Medicine (PM) Test as described ranks treatments by a score that estimates the activity of each treatment across a population of patient samples. Higher score represents more ex vivo sensitivity to treatment, while lower score represents less ex vivo sensitivity to treatment, i.e. more ex vivo resistance. A particular format of the results of the PM Test is shown in FIG. 19, panels A and B, wherein the ranking of treatments by activity score from 100%=best to 0%=worst is shown (score may be represented graphically using a colour/tone gradient or categorisation). The following 3 categories are identified:
To validate the predictive power of these PM Test score results, the set of 123 samples treated homogeneously with CYT+IDA that were used in the correlation study of Example 1 were employed. Only 112 samples were used for validation. To evaluate the predictive power of the PM Test score, in the format shown in FIG. 19, panel A referring to a sensitive patient we can only use patients predicted to be sensitive or resistant. Treatments having intermediate scores are not considered sufficiently strong to predict any response. In the case of intermediate scores, other factors such as pharmacokinetics may be more important than the score. On the other hand, extreme scores are more likely to prevail over other factors such as pharmacokinetics.
The set of data of 112 patients treated with CYT+IDA represents a 1st line treatment of AML with a 72% response rate. This means that 72% of these 112 patients achieved Complete Remission (CR) clinically. The majority of patients were sensitive, with fewer resistant patients. Thus, the statistics are improved by calculating the % of cases in which the PM Test score predicted patients to be sensitive to the ex vivo treatment. This means selecting only the treatments to which the patient is expected to be very sensitive, with scores between 80-100%. The % of accurate prediction of sensitive (responsive) patients is referred as the Negative Predicted Value (NPV).
Samples whose score are between this variable threshold and 100% are analysed and predicted as sensitive because they have the top score. The results are shown for the monotherapies CYT and IDA, and for the combination treatment. Focus was placed on the combination treatment CYT+IDA that was administered to patients. Columns 8 to 10 of Table 4 show the results for the combined treatment CYT+IDA for different thresholds. The lowest threshold 55%, which means between 55 and 100%, identifies 93 out of the 112 samples, that would be predicted as sensitive. […] Thus, the prediction accuracy or NPV is 77/93=82.8%. As the threshold is increased (descending the 1st column of Table 4), the range of scores included is narrowed because the maximum is always 100%. Consequently, as the threshold is increased, the total number of samples included diminishes, reaching 0 samples at 100% (100-100%) and 18 samples at 95%. The decrease can be observed in the number of either sensitive or resistant samples (descending columns 8 and 9 of Table 4). […] Thus, the higher the score, the better the prediction (moreover, the intermediate sensitivity values provide less accurate prediction than the extreme values).

[5] abbreviates: MM patient VIVIA-PMMM010431, 48 h.
[6] abbreviates: MM patient VIVIA-PMMM130061, 48 h.
Where [7] appears, read: ALL second line patient VIVIA-PMALL04001, 48 h.
The mark [8] stands for this setting: MM patient VIVIA-PMMM060111, 48 h.
The mark [9] stands for this setting: ALL patient VIVIA-PMALL07002, 48 h.
The mark [10] stands for this setting: ALL patient VIVIA-PMALL09001, 48 h.

Regarding `Cn1c(CCCC(=O)O)nc2cc(N(CCCl)CCCl)ccc21` [bendamustine], in test [1] (setting [5]), the “EC50 relative to population distribution” value is “below the 10th percentile” and the ex vivo activity result is on record as “potent activity”. Also, the ex vivo activity result in test [1] (setting [6]) is “very weak activity”.

`O=C1c2c(O)ccc(O)c2C(=O)c2c(NCCNCCO)ccc(NCCNCCO)c21` [mitoxantrone]: the ex vivo activity entry in test [2] (setting [7]) is on record as “low activity or resistance”.

With `C[C@@H]1C[C@H]2[C@@H]3CCC4=CC(=O)C=C[C@]4(C)[C@@]3(F)[C@@H](O)C[C@]2(C)[C@@]1(O)C(=O)CO` [dexamethasone], the ex vivo activity result in test [1] (setting [8]) is listed as “no activity”.

As to `CC(C)C[C@H](NC(=O)[C@H](Cc1ccccc1)NC(=O)c1cnccn1)B(O)O` [bortezomib], the “EC50 relative to population distribution” value in test [1] (setting [5]) is listed as “below the first quartile”. The ex vivo activity entry in test [1] (setting [5]) is reported as “potent activity”; in test [1] (setting [8]) it was “intermediate activity”; in test [1] (setting [6]), “very weak activity”.

For `CC(=O)[C@]1(O)Cc2c(O)c3c(c(O)c2[C@@H](O[C@H]2C[C@H](N)[C@H](O)[C@H](C)O2)C1)C(=O)c1ccccc1C3=O` [Idarubicin, idarubicin], the EC50 in test [3] (Homo sapiens, AML bone marrow samples, 48 h incubation) turned out to be 87 nM. For the same compound, the “EMAX (maximum fractional decrease in LPC)” value in test [3] (set to 1 in the model, 48 h) turned out to be 1. The “γ (steepness of LPC vs concentration curve)” value in test [3] (48 h) came to 1.14. For the same compound, the “% Sens. (percentage of patients sensitive to therapy, NPV)” value was determined as 84.8% in test [4] (PM Test score ≥55); 84.9% in test [4] (PM Test score ≥60); 87.0% in test [4] (PM Test score ≥65); 86.6% in test [4] (PM Test score ≥70); 85.2% in test [4] (PM Test score ≥75); 85.7% in test [4] (PM Test score ≥80). The “% Sens. (percentage of patients sensitive to therapy, NPV)” value was determined as 86.5% in test [4] (PM Test score ≥85), 88.4% in test [4] (PM Test score ≥90) and 96.8% in test [4] (PM Test score ≥95). Moreover, the “Res. (number of patients resistant to therapy)” value in test [4] (PM Test score ≥55) was 12; in test [4] (PM Test score ≥60), 11; in test [4] (PM Test score ≥65) it was 9; in test [4] (PM Test score ≥70), 9; in test [4] (PM Test score ≥75) it was 9; in test [4] (PM Test score ≥80) it was 8. The “Res. (number of patients resistant to therapy)” value was found to be 7 in test [4] (PM Test score ≥85), 5 in test [4] (PM Test score ≥90), 1 in test [4] (PM Test score ≥95) and 0 in test [4] (PM Test score ≥100). Further, the “Sens. (number of patients sensitive to therapy)” value in test [4] (PM Test score ≥55) came to 67; in test [4] (PM Test score ≥60), 62; in test [4] (PM Test score ≥65), 60; in test [4] (PM Test score ≥70) it was 58; in test [4] (PM Test score ≥75), 52; in test [4] (PM Test score ≥80), 48. In addition, the “Sens. (number of patients sensitive to therapy)” value in test [4] (PM Test score ≥85) is 45; in test [4] (PM Test score ≥90) it was 38; in test [4] (PM Test score ≥95), 30; in test [4] (PM Test score ≥100) it was 0. Further, the ex vivo activity entry in test [2] (setting [7]) is “very potent activity”.

On to `C[C@]12C=CC(=O)C=C1CC[C@@H]1[C@@H]2[C@@H](O)C[C@@]2(C)[C@H]1CC[C@]2(O)C(=O)CO` [prednisolone], for which the ex vivo activity entry is on record as “intermediate or high activity” in test [2] (setting [9]), “high activity” in test [2] (setting [10]) and “potent activity” in test [1] (setting [5]). Also, the “EC50 relative to population distribution” value in test [1] (setting [5]) is “below the 10th percentile”.

As to L-asparaginase, the ex vivo activity entry in test [2] (setting [9]) is “intermediate or high activity”.

As to `COc1cccc2c1C(=O)c1c(O)c3c(c(O)c1C2=O)C[C@@](O)(C(C)=O)C[C@@H]3O[C@H]1C[C@H](N)[C@H](O)[C@H](C)O1` [daunorubicin], the values for the ex vivo activity entry in test [2] (setting [9]), in test [2] (setting [10]) and in test [2] (setting [7]) were “intermediate or high activity”, “high activity” and “low activity or resistance”, respectively.

In the case of `O=C1CCC(N2C(=O)c3ccccc3C2=O)C(=O)N1` (stereo not shown) [thalidomide], in test [1] (setting [6]), the ex vivo activity result is listed as “very weak activity”.

On to `CC[C@]1(O)C[C@H]2CN(CCc3c([nH]c4ccccc34)[C@@](C(=O)OC)(c3cc4c(cc3OC)N(C=O)[C@H]3[C@@](O)(C(=O)OC)[C@H](OC(C)=O)[C@]5(CC)C=CCN6CC[C@]43[C@@H]65)C2)C1` [vincristine], for which the ex vivo activity entry is “intermediate or high activity” in test [2] (setting [9]), “high activity” in test [2] (setting [10]) and “low activity or resistance” in test [2] (setting [7]).

As to `O=P1(N(CCCl)CCCl)NCCCO1` (stereo not shown) [cyclophosphamide], the ex vivo activity result in test [2] (setting [9]) was “intermediate or high activity”.
